Assay results reported in the NIST ThermoML archive (doi:10.1016/j.jct.2006.03.014).
Numbers after ± are expanded uncertainties.

Assays:
[1] = refractive index (Na D-line) (dimensionless); conditions: 298.15 K; 101.33 kPa; Liquid; Standard Abbe refractometry
[2] = 101 kPa, Liquid; for viscosity: Capillary tube (Ostwald / Ubbelohde) method; for mass density: Pycnometric method
[3] = xn = mol fraction of the nth substance listed; conditions: 101 kPa, Liquid, x2 = 0; for viscosity: Capillary tube (Ostwald / Ubbelohde) method; for mass density: Pycnometric method

| SMILES | refractive index [1] | viscosity ([2]; 298.15 K) [mPa·s] | mass density ([2]; 298.15 K) [kg/m3] | viscosity ([2]; 303.15 K) [mPa·s] | mass density ([2]; 303.15 K) [kg/m3] | viscosity ([2]; 308.15 K) [mPa·s] | mass density ([2]; 308.15 K) [kg/m3] | viscosity ([3]; 298.15 K) [mPa·s] | mass density ([3]; 298.15 K) [kg/m3] | viscosity ([3]; 303.15 K) [mPa·s] | mass density ([3]; 303.15 K) [kg/m3] | viscosity ([3]; 308.15 K) [mPa·s] | mass density ([3]; 308.15 K) [kg/m3] |
| --- | --- | --- | --- | --- | --- | --- | --- | --- | --- | --- | --- | --- | --- |
| COC(C)=O [methyl ethanoate] | 1.3585 ± 0.0009 | 0.367 ± 0.008 | 926.7 ± 1.3 | 0.351 ± 0.007 | 919.7 ± 1.2 | 0.338 ± 0.007 | 916.2 ± 1 |  |  |  |  |  |  |
| CCOC(C)=O [ethyl acetate] + CC1OC(C)OC(C)O1 |  |  |  |  |  |  |  | 0.43 ± 0.008 | 893.8 ± 1.2 | 0.401 ± 0.008 | 887.6 ± 1.2 | 0.387 ± 0.008 | 881.2 ± 1.2 |
| COC(C)=O [methyl ethanoate] + CC1OC(C)OC(C)O1 |  |  |  |  |  |  |  | 0.367 ± 0.008 | 926.7 ± 1.3 | 0.351 ± 0.007 | 919.7 ± 1.2 | 0.338 ± 0.007 | 916.2 ± 1 |
| CCCCOC(C)=O [butyl ethanoate] | 1.3918 ± 0.0009 | 0.685 ± 0.01 | 876.4 ± 1.1 | 0.636 ± 0.01 | 871.3 ± 1.1 | 0.579 ± 0.009 | 866.2 ± 1.1 |  |  |  |  |  |  |
| CC1OC(C)OC(C)O1 (stereo not given) [2,4,6-trimethyl-1,3,5-trioxane] |  | 1.107 ± 0.015 | 988.4 ± 1.3 | 1.001 ± 0.014 | 982.6 ± 1.3 | 0.907 ± 0.013 | 976.4 ± 1.4 |  |  |  |  |  |  |
| CCOC(C)=O [ethyl acetate] | 1.37 ± 0.0009 | 0.43 ± 0.008 | 893.8 ± 1.2 | 0.401 ± 0.008 | 887.6 ± 1.2 | 0.387 ± 0.008 | 881.2 ± 1.2 |  |  |  |  |  |  |
| CCCCOC(C)=O [butyl ethanoate] + CC1OC(C)OC(C)O1 |  |  |  |  |  |  |  | 0.685 ± 0.01 | 876.4 ± 1.1 | 0.636 ± 0.01 | 871.3 ± 1.1 | 0.579 ± 0.009 | 866.2 ± 1.1 |
